In one data set the test system is E. coli ATCC 25922. In kind it is cell-based, Escherichia coli. As for the experimental part:
(§1) The antibacterial activity of the peptoids was evaluated against gram‐positive (Staphylococcus aureus, ATCC 25 923) and gram‐negative (Escherichia coli, ATCC 25 922) bacteria. […] The MIC of each peptoid was determined using a broth dilution assay. For each assay, the primary culture of either S. aureus or E. coli was grown overnight in cation‐adjusted Mueller Hinton broth 2 (MHB2) media at 37 °C with shaking. A secondary culture was prepared the next day, grown for 3–4 h, and then diluted in MHB2 media with a final concentration of 0.001% acetic acid and 0.02% bovine serum albumin to obtain a calculated optical density (OD) of 0.001. This corresponded to ≈2–5 × 10^5 colony‐forming units (CFU mL^−1) of bacteria. Using 96‐well polypropylene plates (Eppendorf, Hamburg, Germany), 100 µL of 2–5 × 10^5 CFU mL^−1 bacteria were added in triplicate for each peptoid. Each peptoid was assayed at six different concentrations in two‐fold serial dilutions. The maximum peptoid concentration was 25 µM. […] The MIC value determination was performed in triplicate. The MIC was defined as the lowest peptoid concentration that prevented turbidity during visual inspection.

A further data set has as its system rat erythrocytes. Put plainly: Hemolysis assay. It is filed as cell-based. A digest of the protocol: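 Washed Sprague-Dawley rat erythrocytes (10% suspension in PBS pH 7.4) mixed with peptoids (0–100 µM), 60 min at 37 °C; supernatant A540 expressed as % of 1% Triton X-100 lysis. HC10/HC50 are concentrations giving 10%/50% hemolysis; Hmax is hemolysis at 100 µM.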

The test system of a further data set is S. aureus ATCC 25923. It is filed as cell-based, Staphylococcus aureus. The procedure: as §1
Data set [1] can be described thus: Analytical reversed-phase HPLC elution (hydrophobicity). In kind it is physicochemical. The note with it: analytical RP-HPLC, 1 mL/min, UV 220 nm; for HPLC elution: Table S1, SunFire C18, water/ACN + 0.1% TFA, 5 to 100% B linear over 30 min, approximate comparison of hydrophobicity. A digest of the protocol:
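Analytical reversed-phase HPLC on a C18 column (4.6 × 250 mm, 5 μm) at 1 mL/min, water/acetonitrile each with 0.1% TFA. Held at 5% B for 2 min, then linear to 100% B over 30 min and held 5 min, with UV detection at 220 nm; retention time (tR) serves as hydrophobicity measure.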

[2] abbreviates: Table S2, broth dilution, MHB2, 37 °C 24 h, max 25 µM, mean of triplicate.

Each structure is given as a SMILES string. Converted amounts (≈) assume the structure as drawn. Read-outs that look alike come from different tables or passages of the source. Square brackets hold non-standard residues; d marks the D form. Peptide text beside a SMILES is read from it. Gly(N(CH2)2(3-indolyl)) = O=C(O)CNCCc1c[nH]c2ccccc12; Nspe = C[C@H](NCC(=O)O)c1ccccc1; Nlys = NCCCCNCC(=O)O A value given as a limit tells only on which side of the number the result lay.

The values that follow come from publication PMC10460844, “Real‐Time Monitoring of Multitarget Antimicrobial Mechanisms of Peptoids Using Label‐Free Imaging with Optical Diffraction Tomography” (Advanced Science, 2023).

A word on the HC50: it is the concentration giving 50% haemolysis. Higher therefore signals weaker haemolysis.

Take `C[C@@H](c1ccccc1)N(CC(N)=O)C(=O)CN(C(=O)CN(CCCCN)C(=O)CN(C(=O)CN(C(=O)CN(CCCCN)C(=O)CN(C(=O)CN(C(=O)CN(CCCCN)C(=O)CN(CCc1c[nH]c2ccccc12)C(=O)CN(C(=O)CNCCCCN)[C@@H](C)c1ccccc1)[C@@H](C)c1ccccc1)[C@@H](C)c1ccccc1)[C@@H](C)c1ccccc1)[C@@H](C)c1ccccc1)[C@@H](C)c1ccccc1` [10-AcOH]: the “MIC E. coli ATCC25922” value in the data set with E. coli ATCC 25922 (ATCC 25922) is listed as 6.3 µM (≈ 11.7 µg/mL). The “Hmax (100 µM)” value in the data set on rat erythrocytes amounted to 102.3±11.3%. In the data set with rat erythrocytes (red cells of rat), this compound showed an HC10 of 14.1 µM and a 50% haemolytic concentration (HC50) of 29.4 µM. The “MIC S. aureus ATCC25923” value in the data set with S. aureus ATCC 25923 (ATCC 25923) is given as 1.6 µM (≈ 2.97 µg/mL).
In the same order, the values of `C[C@@H](c1ccccc1)N(CC(=O)N(CCCCN)CC(=O)N(CC(=O)N(CC(=O)N(CCCCN)CC(=O)N(CC(=O)N(CC(=O)N(CCCCN)CC(N)=O)[C@@H](C)c1ccccc1)[C@@H](C)c1ccccc1)[C@@H](C)c1ccccc1)[C@@H](C)c1ccccc1)C(=O)CN(C(=O)CN(CCCCN)C(=O)CN(CCc1c[nH]c2ccccc12)C(=O)CNCCc1c[nH]c2ccccc12)[C@@H](C)c1ccccc1` [37-AcOH] (H-[Gly(N(CH2)2(3-indolyl))][Gly(N(CH2)2(3-indolyl))][Nlys][Nspe][Nspe][Nlys][Nspe][Nspe][Nlys][Nspe][Nspe][Nlys]-NH2) are 6.3 µM (≈ 12 µg/mL), 98.9±8.0%, 12.5 µM, 26.0 µM and 1.6 µM (≈ 3.04 µg/mL).
Turning to `C[C@@H](c1ccccc1)N(CC(N)=O)C(=O)CN(C(=O)CN(CCCCN)C(=O)CN(C(=O)CN(C(=O)CN(CCCCN)C(=O)CN(CCc1c[nH]c2ccccc12)C(=O)CN(C(=O)CN(CCCCN)C(=O)CN(C(=O)CN(C(=O)CNCCCCN)[C@@H](C)c1ccccc1)[C@@H](C)c1ccccc1)[C@@H](C)c1ccccc1)[C@@H](C)c1ccccc1)[C@@H](C)c1ccccc1)[C@@H](C)c1ccccc1` [peptoid 9], the “MIC E. coli ATCC25922” value in the data set on E. coli ATCC 25922 (setting [2]) was 3.1 µM (≈ 5.76 µg/mL). Besides, in data set [1], the HPLC elution is 54.6 % MeCN. Besides, in the data set on rat erythrocytes, the “Hmax (100 µM)” value is reported as 106.4±0.6%. For the same compound, in the data set with rat erythrocytes (pH 7.4), the HC10 was 10.6 µM and the HC50 was determined as 31.9 µM.
On to `C[C@@H](c1ccccc1)N(CC(=O)N(CCc1c[nH]c2ccccc12)CC(N)=O)C(=O)CN(CCCCN)C(=O)CN(C(=O)CN(C(=O)CN(CCCCN)C(=O)CN(C(=O)CN(C(=O)CN(CCCCN)C(=O)CN(C(=O)CN(C(=O)CNCCCCN)[C@@H](C)c1ccccc1)[C@@H](C)c1ccccc1)[C@@H](C)c1ccccc1)[C@@H](C)c1ccccc1)[C@@H](C)c1ccccc1)[C@@H](C)c1ccccc1` [peptoid 7] (H-[Nlys][Nspe][Nspe][Nlys][Nspe][Nspe][Nlys][Nspe][Nspe][Nlys][Nspe][Gly(N(CH2)2(3-indolyl))]-NH2), for which the HPLC elution in data set [1] was 54.1 % MeCN. Besides, the “Hmax (100 µM)” value in the data set with rat erythrocytes amounted to 94.1±4.3%. In the data set on rat erythrocytes (pH 7.4), this compound yielded an HC10 of 7.8 µM and an HC50 of 23.8 µM.
In the same order, the values of `C[C@@H](c1ccccc1)N(CC(N)=O)C(=O)CN(CCCCN)C(=O)CN(C(=O)CN(CCCCN)C(=O)CN(CCCCN)C(=O)CN(C(=O)CN(C(=O)CN(CCCCN)C(=O)CN(C(=O)CN(C(=O)CN(CCCCN)C(=O)CN(C(=O)CNCCc1c[nH]c2ccccc12)[C@@H](C)c1ccccc1)[C@@H](C)c1ccccc1)[C@@H](C)c1ccccc1)[C@@H](C)c1ccccc1)[C@@H](C)c1ccccc1)[C@@H](C)c1ccccc1` [peptoid 62] are 50.8 % MeCN, 44.8±8.1%, 36.2 µM and more than 100 µM.
Consider `C[C@@H](c1ccccc1)N(CC(N)=O)C(=O)CN(C(=O)CN(CCCCN)C(=O)CN(C(=O)CN(CCc1c[nH]c2ccccc12)C(=O)CN(CCCCN)C(=O)CN(CCc1c[nH]c2ccccc12)C(=O)CN(C(=O)CN(CCCCN)C(=O)CN(C(=O)CN(C(=O)CNCCCCN)[C@@H](C)c1ccccc1)[C@@H](C)c1ccccc1)[C@@H](C)c1ccccc1)[C@@H](C)c1ccccc1)[C@@H](C)c1ccccc1` [peptoid 15], for which the “MIC E. coli ATCC25922” value with E. coli ATCC 25922 (ATCC 25922) came out at 3.1 µM (≈ 5.88 µg/mL). The HPLC elution in data set [1] was determined as 53.7 % MeCN. In the data set on rat erythrocytes (pH 7.4), this compound had an HC10 of 28.1 µM and a 50% haemolytic concentration (HC50) of 60.9 µM. For the same compound, in the data set with rat erythrocytes (red cells of rat), the HC10 is on record as 20.5 µM and the HC50 was determined as 89.2 µM.
Take `C[C@@H](c1ccccc1)N(CC(N)=O)C(=O)CN(C(=O)CN(CCCCN)C(=O)CN(C(=O)CN(CCCCN)C(=O)CN(CCCCN)C(=O)CN(CCc1c[nH]c2ccccc12)C(=O)CN(C(=O)CN(CCCCN)C(=O)CN(C(=O)CN(C(=O)CNCCCCN)[C@@H](C)c1ccccc1)[C@@H](C)c1ccccc1)[C@@H](C)c1ccccc1)[C@@H](C)c1ccccc1)[C@@H](C)c1ccccc1` [peptoid 25]: the HPLC elution in data set [1] was 50.8 % MeCN. Also, the “Hmax (100 µM)” value with rat erythrocytes was determined as 2.7±0.4%. In the data set with rat erythrocytes (pH 7.4), this compound displayed an HC10 of more than 100 µM and an HC50 of more than 100 µM.
Take `C[C@@H](c1ccccc1)N(CC(N)=O)C(=O)CN(C(=O)CN(CCCCN)C(=O)CN(C(=O)CN(CCCCN)C(=O)CN(CCCCN)C(=O)CN(C(=O)CN(C(=O)CN(CCCCN)C(=O)CN(CCc1c[nH]c2ccccc12)C(=O)CN(CCc1c[nH]c2ccccc12)C(=O)CNCCCCN)[C@@H](C)c1ccccc1)[C@@H](C)c1ccccc1)[C@@H](C)c1ccccc1)[C@@H](C)c1ccccc1` [peptoid 33]: the HPLC elution in data set [1] is 47.9 % MeCN. The “Hmax (100 µM)” value in the data set with rat erythrocytes was 5.0±0.2%. Moreover, in the data set with rat erythrocytes (pH 7.4), the HC10 is more than 100 µM and the concentration for 50% haemolysis (HC50) is listed as more than 100 µM.
Take `C[C@@H](c1ccccc1)N(CC(=O)N(CCCCN)CC(=O)N(CC(=O)N(CC(=O)N(CCCCN)CC(=O)N(CCc1c[nH]c2ccccc12)CC(=O)N(CCc1c[nH]c2ccccc12)CC(=O)N(CCCCN)CC(=O)N(CCc1c[nH]c2ccccc12)CC(=O)N(CCc1c[nH]c2ccccc12)CC(N)=O)[C@@H](C)c1ccccc1)[C@@H](C)c1ccccc1)C(=O)CN(C(=O)CNCCCCN)[C@@H](C)c1ccccc1` [peptoid 19] (H-[Nlys][Nspe][Nspe][Nlys][Nspe][Nspe][Nlys][Gly(N(CH2)2(3-indolyl))][Gly(N(CH2)2(3-indolyl))][Nlys][Gly(N(CH2)2(3-indolyl))][Gly(N(CH2)2(3-indolyl))]-NH2): the HPLC elution in data set [1] was determined as 52.8 % MeCN. In addition, the “Hmax (100 µM)” value in the data set on rat erythrocytes is reported as 101.5±1.3%. In the data set on rat erythrocytes (pH 7.4), this compound registered an HC10 of 3.8 µM and a concentration for 50% haemolysis (HC50) of 12.5 µM.
With `CC[C@H](C)[C@H](N)C(=O)N[C@@H](CC(C)C)C(=O)N[C@@H](CCCNC(=N)N)C(=O)N[C@@H](Cc1c[nH]c2ccccc12)C(=O)N1CCC[C@H]1C(=O)N[C@@H](Cc1c[nH]c2ccccc12)C(=O)N[C@@H](Cc1c[nH]c2ccccc12)C(=O)N1CCC[C@H]1C(=O)N[C@@H](Cc1c[nH]c2ccccc12)C(=O)N[C@@H](CCCNC(=N)N)C(=O)N[C@@H](CCCNC(=N)N)C(=O)N[C@@H](CCCCN)C(N)=O` [Omiganan, reference compound] (H-ILRWPWWPWRRK-NH2), in data set [1] (Table 1, SunFire C18 […] 250 mm, water/ACN + 0.1% TFA, 5% B 2 min then linear to 100% B over 30 min, used as measure of hydrophobicity), the “HPLC elution (%ACN)” value was 45.7 %ACN. Further, in the data set with rat erythrocytes, the “H max (100 µM)” value is reported as 0% and the “Hmax (100 µM)” value was 0%. For the same compound, in the data set with rat erythrocytes (pH 7.4), the HC10 is more than 100 µM and the concentration for 50% haemolysis (HC50) is reported as more than 100 µM. Further, the “MIC S. aureus ATCC25923” value in the data set on S. aureus ATCC 25923 (setting [2]) was 12.5 µM (≈ 22.2 µg/mL).
Regarding `C[C@@H](c1ccccc1)N(CC(=O)N(CCc1c[nH]c2ccccc12)CC(=O)N(CCCCN)CC(=O)N(CC(=O)N(CCc1c[nH]c2ccccc12)CC(=O)N(CCCCN)CC(=O)N(CC(=O)N(CCc1c[nH]c2ccccc12)CC(=O)N(CCCCN)CC(=O)N(CC(=O)N(CCc1c[nH]c2ccccc12)CC(N)=O)[C@@H](C)c1ccccc1)[C@@H](C)c1ccccc1)[C@@H](C)c1ccccc1)C(=O)CNCCCCN` [peptoid 22] (H-[Nlys][Nspe][Gly(N(CH2)2(3-indolyl))][Nlys][Nspe][Gly(N(CH2)2(3-indolyl))][Nlys][Nspe][Gly(N(CH2)2(3-indolyl))][Nlys][Nspe][Gly(N(CH2)2(3-indolyl))]-NH2), the HPLC elution in data set [1] is 54.1 % MeCN. For the same compound, the “Hmax (100 µM)” value in the data set on rat erythrocytes is 108.6±1.1%. In the data set with rat erythrocytes (pH 7.4), this compound came in with an HC10 of 6.9 µM and an HC50 of 19.4 µM.
Consider `C[C@@H](c1ccccc1)N(CC(N)=O)C(=O)CN(CCCCN)C(=O)CN(CCCCN)C(=O)CN(C(=O)CN(C(=O)CN(CCCCN)C(=O)CN(C(=O)CN(C(=O)CN(CCCCN)C(=O)CN(Cc1ccccc1)C(=O)CN(Cc1ccccc1)C(=O)CNCCCCN)[C@@H](C)c1ccccc1)[C@@H](C)c1ccccc1)[C@@H](C)c1ccccc1)[C@@H](C)c1ccccc1` [peptoid 47], for which the HPLC elution in data set [1] was determined as 47.8 % MeCN. Besides, in the data set with rat erythrocytes, the “Hmax (100 µM)” value turned out to be 4.8±0.2%. In the data set on rat erythrocytes (pH 7.4), this compound displayed an HC10 of more than 100 µM and a 50% haemolytic concentration (HC50) of more than 100 µM.
